Data as given in PubChem BioAssay AID330 (DTP/NCI, 2004).
“And” between values parts separate entries of the source, which are not always exact repeats. Equal values may be shown once. Inconclusive results and toxic doses are left out.

Tested on: P388 leukemia ip, CD2F1 mice, survival T/C
Assay: NCI In Vivo Anticancer Drug Screen. Data for tumor model P388 Leukemia (intraperitoneal) in CD2F1 (CDF1) mice
Settings: endpoint: median survival time, higher = longer survival
Outline: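 Mice carrying the transplanted tumor received test compound or vehicle. Survival was recorded in each group, and the value is the treated-group measurement divided by that of the vehicle-treated control group.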

[1] = dose: 50.0 mg/kg/injection, schedule: Q01DX005 (ip), vehicle: Klucel (hydroxypropylcellulose) (HPC)
[2] = dose: 100.0 mg/kg/injection, schedule: Q01DX005 (ip), vehicle: Klucel (hydroxypropylcellulose) (HPC)
[3] = dose: 200.0 mg/kg/injection, schedule: Q01DX005 (ip), vehicle: Klucel (hydroxypropylcellulose) (HPC)
[4] = dose: 100.0 mg/kg/injection, schedule: Q01DX001 (ip), vehicle: saline with Tween-80
[5] = dose: 200.0 mg/kg/injection, schedule: Q01DX001 (ip), vehicle: saline with Tween-80
[6] = dose: 400.0 mg/kg/injection, schedule: Q01DX001 (ip), vehicle: saline with Tween-80
[7] = dose: 50.0 mg/kg/injection, schedule: Q01DX009 (ip), vehicle: saline with Tween-80
[8] = dose: 100.0 mg/kg/injection, schedule: Q01DX009 (ip), vehicle: saline with Tween-80
[9] = dose: 200.0 mg/kg/injection, schedule: Q01DX009 (ip), vehicle: saline with Tween-80
[10] = dose: 12.5 mg/kg/injection, schedule: Q01DX005 (ip), vehicle: saline with Tween-80
[11] = dose: 50.0 mg/kg/injection, schedule: Q01DX001 (ip), vehicle: saline with Tween-80
[12] = dose: 60.0 mg/kg/injection, schedule: Q01DX005 (ip), vehicle: saline
[13] = dose: 120.0 mg/kg/injection, schedule: Q01DX005 (ip), vehicle: saline
[14] = dose: 240.0 mg/kg/injection, schedule: Q01DX005 (ip), vehicle: saline
[15] = dose: 12.5 mg/kg/injection, schedule: Q01DX005 (ip), vehicle: Klucel (hydroxypropylcellulose) (HPC)
[16] = dose: 12.5 mg/kg/injection, schedule: Q01DX009 (ip), vehicle: Klucel (hydroxypropylcellulose) (HPC)
[17] = dose: 50.0 mg/kg/injection, schedule: Q01DX009 (ip), vehicle: Klucel (hydroxypropylcellulose) (HPC)
[18] = dose: 25.0 mg/kg/injection, schedule: Q01DX009 (ip), vehicle: saline with Tween-80

SMILES: CCCCCOc1cc2c(cc1C(C)c1ccc(OC)cc1)OCO2 (stereo unspecified)
- T/C [1]: 107 % of control
- T/C [2]: 103 % of control
- T/C [3]: 98 % of control

SMILES: COc1ccc2c(NCCCCCCCCCCNc3c4ccccc4nc4cc(OC)ccc34)c3ccccc3nc2c1
- T/C (dose: 2.5 mg/kg/injection, schedule: Q01DX009 (ip), vehicle: other): 153 % of control
- T/C (dose: 5.0 mg/kg/injection, schedule: Q01DX009 (ip), vehicle: other): 155 % of control

SMILES: NC(=NCCSCc1ccccc1)NCCc1cnc[nH]1
- T/C [4]: 102 % of control
- T/C [5]: 102 % of control
- T/C [6]: 98 % of control

SMILES: Cc1ccc(NC(=O)N2c3ccccc3SC23CCCCC3)c(C)c1
- T/C [7]: 102 % of control
- T/C [8]: 105 % of control
- T/C [9]: 103 % of control

SMILES: C/C(=N\NC(=S)N1CCN(c2ccccn2)CC1)c1ncccn1
- T/C (dose: 3.13 mg/kg/injection, schedule: Q01DX005 (ip), vehicle: saline with Tween-80): 115 % of control
- T/C (dose: 6.25 mg/kg/injection, schedule: Q01DX005 (ip), vehicle: saline with Tween-80): 122 % of control and 123 % of control
- T/C [10]: 95 % of control

SMILES: Nc1ccc(C2C(=[N+]([O-])[O-])C=C([N+](=O)[O-])c3[nH]o[n+](=O)c32)cc1 (stereo unspecified)
- T/C [11]: 100 % of control
- T/C [4]: 100 % of control

SMILES: C=C(CN(C)C)C(=O)c1ccc(OC)cc1OC
- T/C (dose: 1.9 mg/kg/injection, schedule: Q04DX002 (ip), vehicle: saline): 95 % of control
- T/C (dose: 3.8 mg/kg/injection, schedule: Q04DX002 (ip), vehicle: saline): 106 % of control
- T/C (dose: 7.5 mg/kg/injection, schedule: Q04DX002 (ip), vehicle: saline): 102 % of control and 98 % of control

SMILES: CC(=O)/C(=C\c1ccccc1Cl)C(=O)CCN(C)C
- T/C (dose: 40.0 mg/kg/injection, schedule: Q01DX005 (ip), vehicle: saline): 115 % of control
- T/C [12]: 107 % of control and 112 % of control
- T/C [13]: 121 % of control
- T/C [14]: 122 % of control

SMILES: CCOc1cc2c(cc1C(C)c1ccc(OC)c(OC)c1)OCO2 (stereo unspecified)
- T/C [1]: 100 % of control
- T/C [2]: 105 % of control
- T/C [3]: 107 % of control

SMILES: CC1=C2CCC3(C)C(=C2OC1=O)C(C)=C(Cl)C(Cl)C3Cl (stereo unspecified)
- T/C [1]: 113 % of control
- T/C [2]: 119 % of control
- T/C [3]: 115 % of control

SMILES: CCC[CH2][Sn]1([CH2]CCC)[O]c2ccccc2[O]1
- T/C (dose: 0.39 mg/kg/injection, schedule: Q01DX005 (ip), vehicle: saline with Tween-80): 103 % of control
- T/C (dose: 0.78 mg/kg/injection, schedule: Q01DX005 (ip), vehicle: saline with Tween-80): 106 % of control
- T/C (dose: 1.56 mg/kg/injection, schedule: Q01DX005 (ip), vehicle: saline with Tween-80): 109 % of control and 124 % of control
- T/C (dose: 3.12 mg/kg/injection, schedule: Q01DX005 (ip), vehicle: Klucel (hydroxypropylcellulose) (HPC)): 100 % of control
- T/C (dose: 3.12 mg/kg/injection, schedule: Q01DX005 (ip), vehicle: saline with Tween-80): 123 % of control
- T/C (dose: 6.25 mg/kg/injection, schedule: Q01DX005 (ip), vehicle: Klucel (hydroxypropylcellulose) (HPC)): 105 % of control
- T/C [15]: 107 % of control

SMILES: CC(=O)OCc1cc(=O)n(C)c2c3c4c(cc12)c(C)cc(=O)n4CO3
- T/C [16]: 123 % of control
- T/C (dose: 25.0 mg/kg/injection, schedule: Q03HX015 (ip), vehicle: Klucel (hydroxypropylcellulose) (HPC)): 173 % of control
- T/C (dose: 25.0 mg/kg/injection, schedule: Q04DX002 (ip), vehicle: Klucel (hydroxypropylcellulose) (HPC)): 121 % of control
- T/C (dose: 25.0 mg/kg/injection, schedule: Q06HX010 (ip), vehicle: Klucel (hydroxypropylcellulose) (HPC)): 152 % of control
- T/C (dose: 50.0 mg/kg/injection, schedule: Q01DX001 (ip), vehicle: Klucel (hydroxypropylcellulose) (HPC)): 119 % of control and 124 % of control
- T/C [17]: 157 % of control
- T/C (dose: 50.0 mg/kg/injection, schedule: Q06HX010 (ip), vehicle: Klucel (hydroxypropylcellulose) (HPC)): 105 % of control
- T/C (dose: 100.0 mg/kg/injection, schedule: Q01DX009 (ip), vehicle: Klucel (hydroxypropylcellulose) (HPC)): 86 % of control
- T/C (dose: 200.0 mg/kg/injection, schedule: Q01DX001 (ip), vehicle: Klucel (hydroxypropylcellulose) (HPC)): 155 % of control
- T/C (dose: 200.0 mg/kg/injection, schedule: Q04DX002 (ip), vehicle: Klucel (hydroxypropylcellulose) (HPC)): 168 % of control
- T/C (dose: 400.0 mg/kg/injection, schedule: Q01DX001 (ip), vehicle: Klucel (hydroxypropylcellulose) (HPC)): 157 % of control and 176 % of control
- T/C (dose: 800.0 mg/kg/injection, schedule: Q01DX001 (ip), vehicle: Klucel (hydroxypropylcellulose) (HPC)): 168 % of control

SMILES: CCN(CC)CCCC(C)Nc1cc(-c2ccccc2)nc2cc(Cl)ccc12 (stereo unspecified)
- T/C (dose: 50.0 mg/kg/injection, schedule: Q01DX005 (ip), vehicle: saline): 106 % of control
- T/C (dose: 100.0 mg/kg/injection, schedule: Q01DX005 (ip), vehicle: saline): 112 % of control
- T/C (dose: 200.0 mg/kg/injection, schedule: Q01DX005 (ip), vehicle: saline): 116 % of control

SMILES: Cc1ccc2ncc([N+](=O)[O-])n2c1
- T/C [11]: 94 % of control
- T/C [4]: 97 % of control
- T/C [5]: 90 % of control
- T/C [6]: 94 % of control

SMILES: CCN(CC)c1cc(Cl)ccc1Cl
- T/C [18]: 104 % of control
- T/C [7]: 104 % of control
- T/C [8]: 100 % of control

SMILES: CCOP(=O)(CC=O)OCC
- T/C [12]: 95 % of control
- T/C [13]: 100 % of control
- T/C [14]: 101 % of control

SMILES: O=C1/C(=C/c2cccc(O)c2O)SC(=S)N1CCCN1CCOCC1
- T/C [7]: 98 % of control
- T/C [8]: 107 % of control
- T/C [9]: 92 % of control

SMILES: CSc1ncc(Br)c(Sc2nc(N)nc3nc[nH]c23)n1
- T/C (dose: 12.5 mg/kg/injection, schedule: Q01DX009 (ip), vehicle: saline with Tween-80): 95 % of control
- T/C [18]: 86 % of control

SMILES: N#CC=Cc1ccc([N+](=O)[O-])s1 (mixture of isomers)
- T/C [10]: 109 % of control
- T/C (dose: 25.0 mg/kg/injection, schedule: Q01DX005 (ip), vehicle: saline with Tween-80): 115 % of control

SMILES: COC(=O)NC1=Nc2ccc(Cl)cc2NS1
- T/C [15]: 102 % of control
- T/C (dose: 25.0 mg/kg/injection, schedule: Q01DX005 (ip), vehicle: Klucel (hydroxypropylcellulose) (HPC)): 100 % of control
- T/C [1]: 112 % of control and 97 % of control

SMILES: CCCCCCCCCSc1nc2ccc(N=Cc3ccccc3O)cc2s1
- T/C [16]: 100 % of control
- T/C (dose: 25.0 mg/kg/injection, schedule: Q01DX009 (ip), vehicle: Klucel (hydroxypropylcellulose) (HPC)): 100 % of control
- T/C [17]: 91 % of control and 92 % of control
- T/C (dose: 200.0 mg/kg/injection, schedule: Q01DX009 (ip), vehicle: Klucel (hydroxypropylcellulose) (HPC)): 90 % of control

SMILES: CCC(=O)N(C)C(C)C(=O)OC1CC(=O)N(C)c2cc(cc(OC)c2Cl)CC2(C)OC2/C=C/C(OC)C2(O)CC(OC(=O)N2)C(C)C2OC12C (stereo unspecified)
- T/C (dose: 25.0 micrograms/kg/injection, schedule: Q01DX009 (ip), vehicle: saline + alcohol): 124 % of control
- T/C (dose: 50.0 micrograms/kg/injection, schedule: Q01DX009 (ip), vehicle: saline + alcohol): 120 % of control and 124 % of control
- T/C (dose: 100.0 micrograms/kg/injection, schedule: Q01DX009 (ip), vehicle: saline + alcohol): 124 % of control
- T/C (dose: 800.0 micrograms/kg/injection, schedule: Q01DX009 (ip), vehicle: saline + alcohol): 152 % of control

SMILES: O=c1c2cc(O)ccc2oc2c(CO)ccc(NCCN3CCCC3)c12
- T/C [4]: 93 % of control
- T/C [5]: 100 % of control
- T/C [6]: 106 % of control

SMILES: Fc1ccc2nc3ccccc3c(SCCCCCSc3c4ccccc4nc4ccc(F)cc34)c2c1
- T/C (dose: 60.0 mg/kg/injection, schedule: Q01DX005 (ip), vehicle: Klucel (hydroxypropylcellulose) (HPC)): 94 % of control
- T/C (dose: 120.0 mg/kg/injection, schedule: Q01DX005 (ip), vehicle: Klucel (hydroxypropylcellulose) (HPC)): 90 % of control

SMILES: COc1cc(/C=C/C(N)=O)cc(OC)c1OC
- T/C (dose: 50.0 mg/kg/injection, schedule: Q04DX003 (ip), vehicle: saline with Tween-80): 94 % of control
- T/C (dose: 100.0 mg/kg/injection, schedule: Q04DX003 (ip), vehicle: saline with Tween-80): 90 % of control
- T/C (dose: 200.0 mg/kg/injection, schedule: Q04DX003 (ip), vehicle: saline with Tween-80): 99 % of control
- T/C (dose: 400.0 mg/kg/injection, schedule: Q04DX003 (ip), vehicle: saline with Tween-80): 100 % of control

SMILES: CC1(C)COC2(C)N(c3ccccc3)C(=O)ON12 (stereo unspecified)
- T/C [1]: 100 % of control
- T/C [2]: 100 % of control
- T/C [3]: 97 % of control
